# Where two headings read alike, the source gives them in different places.
# Tests used:
# [1] = system: anaerobia; experiment: spontaneous anaerobic fermentation of flour paste sealed with rapeseed oil; assay type: cell-based; conditions: about 7 months spontaneous fermentation, air blocked with rapeseed oil; amounts added as
# [2] = system: fly maggot eggs; experiment: meat slice preservative experiment
# [3] = system: glutamine metabolism; experiment: spontaneous fermentation of flour paste mixed with glutamine; assay type: cell-based; conditions: about 25 °C, one hour, without reducing agent 8 to 9
# [4] = trials on patients with gout, urine pH; assay type: in vivo, human
# [5] = system: L-glutamate dehydrogenation; experiment: spontaneous fermentation of flour paste mixed with L-glutamate; assay type: cell-based; conditions: for level of water absorbed on dry test paper: paper inserted 30 minutes, without reducing agent 5 mm
# [6] = spraying on brown spots on the face; assay type: in vivo, human; conditions: 5 ppm sodium selenite solution and randomly 3% aqueous sodium formate solution
# [7] = trials on patients with gastric ulcer or gastrointestinal inflammation; assay type: in vivo, human; conditions: about 30 of about 80 tumor patients having gastrointestinal inflammation
# [8] = system: anaerobic bacteria or facultative anaerobic bacteria; assay type: cell-based
# [9] = system: fermenting microorganism; experiment: flour fermentation experiment; assay type: cell-based; conditions: second day of fermentation; without sodium selenite pH 4-5
# Method: Two portions of flour (50 g each) were used for fermentation experiments. Each portion was mixed with an equal amount (about 50 g) of water, and to one of the mixtures sodium selenite having about 200 μg selenium was added. […] The same phenomenon was observed over 20 days of continuous monitoring (the contrast between flour fragrance and the acidic odor). As measured by pH test paper, the flour with sodium selenite on the second day of fermentation was slightly alkaline with a pH of 7-8, while the flour without sodium selenite was acidified after fermentation with a pH of 4-5. […] Since tumor cells and anaerobia cells have the same steps and processes of chemical reactions in glycolysis, it is believed that tumor cells would either stop metabolism and die, or change the metabolic pattern and turn into normal cells.
# [10] = cited from earlier work
# [11] = system: bacteria; experiment: preservative effect on lettuce leaf, loofah juice and celery leaf in water
# [12] = system: tumors; experiment: administration of reducing agents in cycles to tumor patients; assay type: in vivo, human; conditions: advanced lung cancer, 15-month course with bevacizumab, before reducing agents
# [13] = after 3 days, sodium formate 1 g 3 times per day, sodium oxalate 1 g per day
# [14] = evening of same day, bare meat densely covered
# [15] = next morning, maggots appeared on untreated slice
Compound,fly maggot eggs on the meat slice [2],pH value of the gas in the beaker (wet pH paper) [3],level of water absorbed on dry test paper [5],"fly maggot eggs on the meat slice [2, 14]","maggots on the meat slice [2, 15]",other results
N[C@@H](CS)C(=O)O [L-cysteine],–,–,–,–,–,aqueous solution above the settled flour [1]: clear and transparent
sodium sulfide,about 5,–,–,–,–,maggots on the meat slice [2]: no maggot was hatched
O=C([O-])C(=O)[O-].[Na+].[Na+] [sodium oxalate],about 5,about 7.5,about 9 mm,–,–,"pain feeling of gout [4, 13]: disappeared; morning urine pH by test paper ([4]; gout patients, after 3 days, sodium formate 1 g 3 times per day, sodium oxalate 1 g per day, 5.5 to 6 during onset): 7; pH of urine tested first in the morning ([4]; patients with frequent gout, 1 g per day): increased pH; maggots on the meat slice [2]: no maggot was hatched"
O=C(O)C(=O)O [oxalic acid],–,about 7.5,about 9 mm,about 5,no maggot was hatched,aqueous solution above the settled flour [1]: clear and transparent
O=CO [formic acid],about 5,–,–,–,–,maggots on the meat slice [2]: no maggot was hatched
selenium dioxide,–,about 7.5,about 9 mm,about 5,no maggot was hatched,–
O=C[O-].[Na+] [sodium formate],–,about 7.5,about 9 mm,about 5,no maggot was hatched,"colored spots in more than 10 people [6]: faded or disappeared colored spots; gastrointestinal discomfort [7]: alleviated gastrointestinal discomfort; pain feeling of gout [4, 13]: alleviated and even disappeared; urine pH, hospital urine test ([4]; patient with a tumor, 1 g per day for two weeks): 8; pH of water in the glutinous rice [8]: slightly decreased from about 7; pH value of water in the glutinous rice [8]: about 6"
O=[Se](O)O [sodium selenite],5,about 7.5,9 mm,–,–,"pH of flour by pH test paper [9]: 7-8; pH value of the gas in the beaker (wet pH paper) ([5]; one hour, without sodium selenite 8): about 7.5; toxic dose ([10]; human, oral administration, publicly reported): 400 mg per day; diameter of brown rot spot on lettuce leaf ([11]; fifth day, 180 μg selenium in 80 g tap water, 15 to 20 °C, without: about 6 mm): about 1 mm; diameter of spot on loofah juice ([11]; fifth day, with sodium selenite): about 3 mm; day a spot first appeared on the surface of loofah juice ([11]; loofah juice with sodium selenite, without: about 3 mm spot on second day): 3 days"
[Se] [selenium],–,–,–,–,–,safe dose ([10]; oral intake): no more than 400 mg per day
bevacizumab,–,–,–,–,–,CY211 index during course [12]: up to 28
calcium formate,–,about 7.5,about 9 mm,about 5,no maggot was hatched,effect on pH of water in the glutinous rice [8]: same effect
